Assay results from patent US20060141546A1, “Bacterial test method by glycated label binding” (priority 2002, published 2006).

How the values were obtained:
S. faec. = assay: ALP binding to bacteria in presence of carbohydrates, polysaccharides, glycopeptides and lectins (Example 5, Table 3); settings: ALP 100 mUnits plus 15 μg of additive
Procedure: (§1) Bacterial cells (1 to 4.5×10^7 cells/mL) were washed twice with water after centrifugation to separate cells into a packed pellet from the supernatant liquid. The washed cells in pellet form were suspended in 20 μl of EPPS buffer (50 mM at pH 8.0) and 30 μL of water. Hemoglobin (20 μg) was added as a blocking additive. Alkaline phosphatase (ALP) (100 mUnits) from bovine intestine and 15 μg of simple carbohydrates or proteoglycan or lectins, were added.
(§2) The mixture of glycated protein and bacterial cells was left at 25° C. for 15 minutes. The mixture was then centrifuged at 30,000 rpm for 30 minutes after which the bacterial cells formed a pellet at the bottom of the tube and were washed with water 4-5 times (50 μL). Centrifugation allows separation of glycoprotein bound to the bacteria cells from unbound glycated protein(s).
(§3) After washing, the bacterial pellets were suspended in 50 μL of sodium tetraborate buffer (25 mM at pH 9.5). A 5 uL aliquot of the suspension was assayed for detection of ALP binding by adding 5 μL of para-nitrophenol phosphate (PNPP, 100 mM), 50 μL sodium borate buffer (25 mM at pH 9.0) and 140 μL of water. […] The color is read at 405 nm using a ELISA plate reader between 15-30 min and the absorbance is directly proportional to the amount of ALP bound to the bacteria cell adhesions for glycated groups.

E. coli = assay: as above; settings: ALP 100 mUnits plus 15 μg of additive
Procedure: as §1, §2, §3

bacteria [1] = assay: ALP binding to bacteria in presence of carbohydrates, polysaccharides, glycopeptides and lectins (Example 5); settings: 15 μg additive with ALP
Procedure: as §1, §2, §3

bacteria [2] = assay: Bacteria assay by binding of ALP iso-forms (Example 4, FIG. 10); settings: for binding of ALP iso-forms to bacteria: 100 mUnits ALP, hemoglobin blocking
Procedure: as §1, with “μL” for “μl”, “intestine, placenta,” for “bovine intestine”, “bacteria sources” for “15 μg of simple carbohydrates or proteoglycan or lectins,”
as §2
as §3, with “in 50 μl of sodium” for “in 50 μL of sodium”, “A 5 μL aliquot of” for “A 5 uL aliquot of”, “nm using an ELISA plate” for “nm using a ELISA plate”, “to the bacteria-cell adhesions for” for “to the bacteria cell adhesions for”, “glycated groups. The results are illustrated in FIG. 10.” for “glycated groups.”

bacteria [3] = assay: Effect of divalent cations on ALP binding to bacteria (Example 7, Table 5, FIG. 12)
Procedure: (§4) Bacterial cells (1 to 4.5×10^7 cells/mL) were washed twice with water after centrifugation to separate cells into a packed pellet from the supernatant liquid. The washed cells in pellet form were suspended in 20 μL of EPPS buffer (50 mM at pH 8.0) and 30 μL of water. […]
as §2
(§5) After washing, the bacterial pellets were suspended in 50 μL of borate buffer (25 mM at pH 9.0). A 5 μL aliquot of the suspension was assayed for detection of ALP binding by adding 5 μL of para-nitrophenol phosphate (PNPP, 100 mM), 50 μL sodium borate buffer (25 mM at pH 9.0) and 140 μL of water. […] The color was read at 405 nm using an ELISA plate reader between 15-30 min; the absorbance is directly proportional to the amount of ALP bound to the bacteria cell.

[4] = test system: bacteria (both Staph and E. coli); assay: Cation effect on ALP binding, bound ALP assayed in glycine buffer pH 10.0 (Example 9, FIGS. 17-18); settings: binding at pH 8.0 in EPPS buffer, assay in glycine buffer pH 10.0, FIGS. 17-18
Procedure: The binding was conducted at pH 8.0 in EPPS buffer.

S. faecalis strain = assay: Zinc concentration dependent ALP binding (Example 7, FIG. 11); settings: increasing concentration of zinc
Procedure: Bacterial cells (1 to 4.5×10^7 cells/mL) were washed twice with water after centrifugation to separate cells into a packed pellet from the supernatant liquid. The washed cells in pellet form were suspended in 20 μL of EPPS buffer (50 mM at pH 8.0) and 30 μL of water. Bovine intestinal alkaline phosphatase (ALP) (2 μg or […]) was added and 0.2 mM of several cations.
as §2
After washing, the bacterial pellets were suspended in 50 μL of borate buffer (25 mM at pH 9.0). […] The color was read at 405 nm using an ELISA plate reader between 15-30 min; the absorbance is directly proportional to the amount of ALP bound to the bacteria cell.
Concentration dependent binding study has been performed in the presence of increasing concentration of zinc with S. faecalis strain as shown in FIG. 11. […] The studies have been continued with different strains of bacteria in the presence of 1 mM Zn^2+ and the ALP binding could be monitored even at 10^5 bacteria concentration (FIG. 12).

[5] = test system: bacteria (Sf—Staph. faec.; Ec: E. coli); assay: Effect of various cations on ALP binding to bacteria (Example 8, FIGS. 13-14); settings: cations 2 mM, bovine intestinal mucosa ALP, FIG. 13
Procedure: as §4
as §2, with “was” for “were”
as §5

[6] = ALP activity of different sources in glycine buffer (Example 9, FIGS. 15-16); type: biochemical; settings: assayed in glycine buffer

In the case of Lipoteichoic acid, the “absorbance (405 nm) of ALP bound to bacteria” value (S. faec.) is reported as 0.2, the “absorbance (405 nm) of ALP bound to bacteria” value (E. coli) is reported as 0.2 and the “effect on bacteria binding of ALP (in words)” value (from here on “effect on bacteria binding”) (bacteria [1]) is reported as “strongly inhibits”.

For “bacterial ALP: Alkaline phosphatase from bacteria sources; lacks glycophospholipid”, the “binding of ALP iso-forms to bacteria” value (bacteria [2]) was “binds bacteria”.

For `[Cl-].[Cl-].[Zn+2]` [ZnCl2], the “effect of cation on binding of ALP to the bacteria (in words)” value (bacteria [3]; 0.2 mM) was “significantly higher binding of ALP”, the “O.D. at 405 nm, With ALP” value (bacteria [3]; bacteria plus cation (CaCl2 1 mM, MgCl2 1 mM, ZnCl2 0.2 mM) with ALP) was 0.53 O.D and the “O.D. at 405 nm, No ALP” value (bacteria [3]; bacteria plus cation (CaCl2 1 mM, MgCl2 1 mM, ZnCl2 0.2 mM), no ALP) was 0.23 O.D. For the same molecule, the “cation effectiveness for binding of ALP to the bacteria” value [4] was “best metal”, the “zinc concentration at which optimum binding occurs” value (S. faecalis strain) was 1 mM and the “effect of various cations on ALP-binding (in words)” value [5] was “stimulate ALP-binding”.

For `OC[C@H]1O[C@@H](O)[C@H](O)[C@@H](O)[C@@H]1O` [Glucose, β-D-Glucose], the “absorbance (405 nm) of ALP bound to bacteria” value (S. faec.) was 2.4, the “absorbance (405 nm) of ALP bound to bacteria” value (E. coli) was 1.8 and the “effect on bacteria binding” value (bacteria [1]) was “did not produce any effect”.

With Lipopolysaccharide the “absorbance (405 nm) of ALP bound to bacteria” value (S. faec.) was 2.0, the “absorbance (405 nm) of ALP bound to bacteria” value (E. coli) was 1.8 and the “effect on bacteria binding” value (bacteria [1]) was “without any effect”.

B1: placenta ALP: Alkaline phosphatase from placenta (protein, UniProt P05187 23-506, looked up)
Alkaline phosphatase, …: IIPVEEENPDFWNREAAEALGAAKKLQPAQTAAKNLIIFLGDGMGVSTVTAARILKGQKKDKLGPEIPLAMDRFPYVALSKTYNVDKHVPDSGATATAYLCGVKGNFQTIGLSAAARFNQCNTTRGNEVISVMNRAKKAGKSVGVVTTTRVQHASPAGTYAHTVNRNWYSDADVPASARQEGCQDIATQLISNMDIDVILGGGRKYMFRMGTPDPEYPDDYSQGGTRLDGKNLVQEWLAKRQGARYVWNRTELMQASLDPSVTHLMGLFEPGDMKYEIHRDSTLDPSLMEMTEAALRLLSRNPRGFFLFVEGGRIDHGHHESRAYRALTETIMFDDAIERAGQLTSEEDTLSLVTADHSHVFSFGGYPLRGSSIFGLAPGKARDRKAYTVLLYGNGPGYVLKDGARPDVTESESGSPEYRQQSAVPLDEETHAGEDVAVFARGPQAHLVHGVQEQTFIAHVMAFAACLEPYTACDLAPPAGTTD
In the case of B1, the “ALP activity compared with other sources” value [6] is reported as “comparable to ALP from other sources”, the “binding of ALP iso-forms to bacteria” value (bacteria [2]) is reported as “lowest binding to bacteria” and the “enzyme activity of ALP iso-forms” value (bacteria [2]; PNPP) is reported as “lowest enzyme activity”.
